Assay results as given in ChEMBL document CHEMBL4831493 (Eur J Med Chem, 2021).
Active and inactive are the calls of the source. The rule behind the calls is not given here.

Tests used:
Acetylcholinesterase [1] = molecular target: Acetylcholinesterase (Homo sapiens, UniProt P22303); assay: Inhibition of human recombinant AChE preincubated for 1 min in presence of DNTB followed by addition of acetylthiocholine iodide substrate and measured after 20 mins by Ellman's method
Acetylcholinesterase [2] = molecular target: Acetylcholinesterase (Electrophorus electricus, UniProt O42275); assay: Inhibition of electric eel recombinant AChE preincubated for 1 min in presence of DNTB followed by addition of acetylthiocholine iodide substrate and measured after 20 mins by Ellman's method
Acetylcholinesterase (Electrophorus electricus, UniProt O42275), sequence (O42275 whole entry): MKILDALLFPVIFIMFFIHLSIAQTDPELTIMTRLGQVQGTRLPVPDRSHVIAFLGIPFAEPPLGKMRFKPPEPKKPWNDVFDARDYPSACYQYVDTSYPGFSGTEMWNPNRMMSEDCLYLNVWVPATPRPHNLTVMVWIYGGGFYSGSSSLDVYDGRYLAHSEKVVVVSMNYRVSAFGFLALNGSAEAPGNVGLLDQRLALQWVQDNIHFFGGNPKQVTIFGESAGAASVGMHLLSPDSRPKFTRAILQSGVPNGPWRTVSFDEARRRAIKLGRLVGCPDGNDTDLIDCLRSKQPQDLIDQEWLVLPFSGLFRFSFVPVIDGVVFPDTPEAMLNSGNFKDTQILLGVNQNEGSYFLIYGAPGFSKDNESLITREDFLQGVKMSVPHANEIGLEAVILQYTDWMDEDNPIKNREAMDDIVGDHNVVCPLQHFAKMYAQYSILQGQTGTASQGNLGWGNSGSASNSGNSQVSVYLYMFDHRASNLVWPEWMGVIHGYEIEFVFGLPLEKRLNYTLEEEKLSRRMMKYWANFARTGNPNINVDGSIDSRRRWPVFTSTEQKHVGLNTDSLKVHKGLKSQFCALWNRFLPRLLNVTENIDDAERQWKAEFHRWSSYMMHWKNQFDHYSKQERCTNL

[3] = molecular target: Glycogen synthase kinase-3 beta (Homo sapiens, UniProt P49841); assay: Inhibition of human recombinant N-terminal His-tagged GSK3beta expressed in Escherichia coli using RRRPASVPPSPSLS RHS(pS)HQRR as substrate incubated for 30 mins in presence of ATP by Kinase-Glo reagent based luminescence assay
Glycogen synthase kinase-3 beta, sequence (P49841 whole entry): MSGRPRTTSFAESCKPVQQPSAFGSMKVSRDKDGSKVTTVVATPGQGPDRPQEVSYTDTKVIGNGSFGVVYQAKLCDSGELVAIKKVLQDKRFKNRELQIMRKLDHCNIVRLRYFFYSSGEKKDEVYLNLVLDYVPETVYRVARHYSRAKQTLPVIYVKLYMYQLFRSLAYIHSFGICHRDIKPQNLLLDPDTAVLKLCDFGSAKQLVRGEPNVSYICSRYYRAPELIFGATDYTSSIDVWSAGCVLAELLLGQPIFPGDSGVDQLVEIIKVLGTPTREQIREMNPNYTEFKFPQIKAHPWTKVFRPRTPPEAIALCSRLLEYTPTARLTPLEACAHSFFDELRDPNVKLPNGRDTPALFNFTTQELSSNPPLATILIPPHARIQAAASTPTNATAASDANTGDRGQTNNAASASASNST

[4] = Effective permeability of the compound by PAMPA-BBB assay; assay type: ADME; conditions: read-out: Peff
[5] = Drug level in ICR mouse brain at 10 mg/kg, po measured after 1 hr by LC/MS/MS analysis; assay type: ADME, organism-based; conditions: read-out: Ct
[6] = Drug level in ICR mouse brain at 10 mg/kg, po measured after 1.5 hrs by LC/MS/MS analysis; assay type: ADME, organism-based; conditions: read-out: Ct
[7] = Drug level in ICR mouse plasma at 10 mg/kg, po measured after 1 hr by LC/MS/MS analysis; assay type: ADME, organism-based
[8] = Drug level in ICR mouse plasma at 10 mg/kg, po measured after 1.5 hrs by LC/MS/MS analysis; assay type: ADME, organism-based
[9] = Ratio of drug level in brain to plasma of ICR mouse at 10 mg/kg, po measured after 1 hr by LC/MS/MS analysis; assay type: ADME, organism-based; conditions: brain and plasma
[10] = Ratio of drug level in brain to plasma of ICR mouse at 10 mg/kg, po measured after 1.5 hrs by LC/MS/MS analysis; assay type: ADME, organism-based; conditions: brain and plasma
HT-22 = assay: Neuroprotective activity in mouse HT-22 cells assessed as glutamate-induced cell mortality at 6 uM preincubated for 1 hr followed by addition of glutamate and measured after 24 hrs (reference value: 58%); assay type: functional; conditions: time 25 hrs
[11] = AUC (0 to infinity) in Sprague-Dawley rat at 10 mg/kg, po measured up to 24 hrs by LC-MS/MS analysis; assay type: ADME, organism-based; set-up: route oral, dose 10 mg/kg, time <=24; conditions: in vivo
[12] = AUC (0 to infinity) in Sprague-Dawley rat at 1 mg/kg, iv measured up to 24 hrs by LC-MS/MS analysis; assay type: ADME, organism-based; set-up: route intravenous, dose 1 mg/kg, time <=24; conditions: in vivo
[13] = Cmax in Sprague-Dawley rat at 10 mg/kg, po measured up to 24 hrs by LC-MS/MS analysis; assay type: ADME, organism-based; set-up: route oral, dose 10 mg/kg, time <=24; conditions: in vivo
[14] = Cmax in Sprague-Dawley rat at 1 mg/kg, iv measured up to 24 hrs by LC-MS/MS analysis; assay type: ADME, organism-based; set-up: route intravenous, dose 1 mg/kg, time <=24; conditions: in vivo
[15] = Tmax in Sprague-Dawley rat at 10 mg/kg, po measured up to 24 hrs by LC-MS/MS analysis; assay type: ADME, organism-based; conditions: in vivo
[16] = Half life in Sprague-Dawley rat at 10 mg/kg, po measured up to 24 hrs by LC-MS/MS analysis; assay type: ADME, organism-based; conditions: in vivo
[17] = Half life in Sprague-Dawley rat at 1 mg/kg, iv measured up to 24 hrs by LC-MS/MS analysis; assay type: ADME, organism-based; conditions: in vivo
[18] = MRT (0 to infinity) in Sprague-Dawley rat at 10 mg/kg, po measured up to 24 hrs by LC-MS/MS analysis; assay type: ADME, organism-based; conditions: in vivo
[19] = MRT (0 to infinity) in Sprague-Dawley rat at 1 mg/kg, iv measured up to 24 hrs by LC-MS/MS analysis; assay type: ADME, organism-based; conditions: in vivo
[20] = Oral bioavailability in Sprague-Dawley rat at 10 mg/kg measured up to 24 hrs by LC-MS/MS analysis; assay type: ADME, organism-based; conditions: in vivo
Mus musculus = assay: Cognitive enhancing effect in mouse model of scopolamine-induced amnesia assessed as decrease in escape latency at 10 mg/kg/day, po measured by Morris water maze test; assay type: functional, organism-based
[21] = molecular target: T1, Acetylcholinesterase (Mus musculus) (UniProt P21836); conditions: ICR, dose 10.0 mg/kg, time 1.5 hrs
T1 sequence (whole entry): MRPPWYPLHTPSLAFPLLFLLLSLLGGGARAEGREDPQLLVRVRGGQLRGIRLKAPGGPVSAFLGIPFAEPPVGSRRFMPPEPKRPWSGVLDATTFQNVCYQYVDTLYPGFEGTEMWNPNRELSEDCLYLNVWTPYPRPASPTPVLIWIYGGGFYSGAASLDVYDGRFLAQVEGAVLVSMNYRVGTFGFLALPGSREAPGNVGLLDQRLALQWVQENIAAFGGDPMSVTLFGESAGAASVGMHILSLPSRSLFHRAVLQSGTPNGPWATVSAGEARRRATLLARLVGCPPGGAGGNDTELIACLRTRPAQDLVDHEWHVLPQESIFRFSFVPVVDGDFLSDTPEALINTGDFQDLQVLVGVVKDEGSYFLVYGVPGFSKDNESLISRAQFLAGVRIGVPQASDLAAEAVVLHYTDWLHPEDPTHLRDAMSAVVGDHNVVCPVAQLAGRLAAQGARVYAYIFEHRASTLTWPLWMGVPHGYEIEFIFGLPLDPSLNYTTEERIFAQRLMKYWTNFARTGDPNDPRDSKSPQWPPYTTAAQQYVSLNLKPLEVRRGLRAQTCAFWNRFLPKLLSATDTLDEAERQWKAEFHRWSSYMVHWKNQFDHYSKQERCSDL

[22] = molecular target: T1, Acetylcholinesterase (Mus musculus); conditions: ICR, dose 10.0 mg/kg, time 1.5 hrs; remark: listed apart in the source

Acetylcholinesterase (Homo sapiens, UniProt P22303), sequence (P22303 whole entry): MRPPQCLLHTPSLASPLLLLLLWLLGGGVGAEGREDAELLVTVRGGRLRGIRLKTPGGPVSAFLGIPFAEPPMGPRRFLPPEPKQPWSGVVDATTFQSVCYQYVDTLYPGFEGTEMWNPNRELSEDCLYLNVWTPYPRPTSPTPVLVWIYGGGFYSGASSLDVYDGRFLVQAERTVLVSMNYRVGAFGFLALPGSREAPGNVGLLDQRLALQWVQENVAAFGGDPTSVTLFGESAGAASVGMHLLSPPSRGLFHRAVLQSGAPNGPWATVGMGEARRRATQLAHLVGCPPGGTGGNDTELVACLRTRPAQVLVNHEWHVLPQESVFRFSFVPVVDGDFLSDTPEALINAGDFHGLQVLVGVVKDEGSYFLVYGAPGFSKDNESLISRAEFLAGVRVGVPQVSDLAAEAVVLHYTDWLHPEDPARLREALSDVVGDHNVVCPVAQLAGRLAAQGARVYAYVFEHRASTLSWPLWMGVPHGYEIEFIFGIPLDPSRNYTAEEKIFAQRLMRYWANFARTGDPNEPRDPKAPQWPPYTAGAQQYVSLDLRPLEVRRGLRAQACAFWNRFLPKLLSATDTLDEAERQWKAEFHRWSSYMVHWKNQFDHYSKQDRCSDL

## O=C(NCC1CCN(Cc2ccc(F)c(F)c2)CC1)c1cncc(NC(=O)c2ccnc(NC(=O)C3CC3)c2)c1
Acetylcholinesterase [1]
  IC50: 3070 nM
Acetylcholinesterase [2]
  IC50: 1050 nM
[3]
  IC50: 279 nM

## O=C(CC1CCN(Cc2ccccc2)CC1)Nc1n[nH]c2cc(-c3cccnc3)ccc12
Acetylcholinesterase [1]
  IC50: 509 nM
Acetylcholinesterase [2]
  IC50: 264 nM
[3]
  IC50: > 10000 nM

## COc1cccc(CN2CCC(CNC(=O)c3cncc(NC(=O)c4ccnc(NC(=O)C5CC5)c4)c3)CC2)c1
Acetylcholinesterase [1]
  IC50: > 10000 nM
Acetylcholinesterase [2]
  IC50: 8910 nM
[3]
  IC50: 126 nM

## O=C(Nc1cncc(OC2CCN(Cc3ccccc3)CC2)c1)c1ccnc(NC(=O)C2CC2)c1
Acetylcholinesterase [1]
  IC50: > 10000 nM
Acetylcholinesterase [2]
  IC50: 9810 nM
[3]
  IC50: 734 nM

## O=C(Nc1cncc(C(=O)NC2CCN(Cc3ccccc3)CC2)c1)c1ccnc(NC(=O)C2CC2)c1
Acetylcholinesterase [1]
  IC50: 622 nM
Acetylcholinesterase [2]
  IC50: 704 nM
[3]
  IC50: 81 nM

## O=C(NCC1CCN(Cc2ccccc2)CC1)c1cncc(NC(=O)c2ccnc(NC(=O)C3CC3)c2)c1
Acetylcholinesterase [1]
  IC50: 1100 nM
Acetylcholinesterase [2]
  IC50: 1100 nM
[3]
  IC50: 305 nM

## O=C(Nc1cccc(OCC2CCN(Cc3ccc(F)cc3)CC2)c1)c1ccnc(NC(=O)C2CC2)c1
Acetylcholinesterase [2]
  IC50: > 10000 nM
[3]
  IC50: > 10000 nM

## O=C(Nc1cccc(OCC2CCN(Cc3ccccc3)CC2)c1)c1ccnc(NC(=O)C2CC2)c1
Acetylcholinesterase [1]
  IC50: 1390 nM
Acetylcholinesterase [2]
  IC50: 843 nM
[3]
  IC50: 9750 nM

## O=C(Nc1cncc(OCC2CCN(Cc3ccccc3Cl)CC2)c1)c1ccnc(NC(=O)C2CC2)c1
Acetylcholinesterase [1]
  IC50: 81.6 nM
Acetylcholinesterase [2]
  IC50: 97.2 nM
[3]
  IC50: 79 nM

## CC(=O)Nc1cc(C(=O)Nc2cncc(OCC3CCN(Cc4ccc(F)cc4)CC3)c2)ccn1
Acetylcholinesterase [1]
  IC50: 9 nM
Acetylcholinesterase [2]
  IC50: 16 nM
[3]
  IC50: 3510 nM

## O=C(NC1CCN(Cc2ccc(F)cc2)CC1)c1cncc(NC(=O)c2ccnc3[nH]ccc23)c1
Acetylcholinesterase [1]
  IC50: 227 nM
Acetylcholinesterase [2]
  IC50: 406 nM
[3]
  IC50: 4930 nM

## O=C(NCC1CCN(Cc2cccc(Cl)c2)CC1)c1cncc(NC(=O)c2ccnc3[nH]ccc23)c1
Acetylcholinesterase [1]
  IC50: 1310 nM
Acetylcholinesterase [2]
  IC50: 874 nM
[3]
  IC50: > 10000 nM

## O=C(NCC1CCN(Cc2ccccc2F)CC1)c1cncc(NC(=O)c2ccnc(NC(=O)C3CC3)c2)c1
Acetylcholinesterase [1]
  IC50: 1760 nM
Acetylcholinesterase [2]
  IC50: 1720 nM
[3]
  IC50: 164 nM

## O=C(NCC1CCN(Cc2ccc(F)cc2)CC1)c1cncc(NC(=O)c2ccnc(NC(=O)C3CC3)c2)c1
Acetylcholinesterase [1]
  IC50: 3030 nM
Acetylcholinesterase [2]
  IC50: 1160 nM
[3]
  IC50: 244 nM

## O=C(Nc1cncc(OCC2CCN(Cc3ccccc3)CC2)c1)c1ccnc(NC(=O)C2CC2)c1
Acetylcholinesterase [1]
  IC50: 2.6 nM
Acetylcholinesterase [2]
  IC50: 1.6 nM
[3]
  IC50: 23 nM
[4]
  Papp: 8.2 ×10⁻⁶ cm/s
[5]
  concentration at 1 h: 34.4 ng/g
[6]
  concentration at 1.5 h: 43.7 ng/g
[7]
  concentration at 1 h: 112 ng/g
[8]
  concentration at 1.5 h: 62.9 ng/g
[9]
  Kp at 1 h: 0.306
[10]
  Kp at 1.5 h: 0.695
HT-22
  Activity: 66%
[11]
  AUC(0-inf): 377 ng·h/mL
[12]
  AUC(0-inf): 152 ng·h/mL
[13]
  Cmax: 47.1 ng/mL
[14]
  Cmax: 98.3 ng/mL
[15]
  Tmax: 1.7 h
[16]
  half-life: 6.3 h
[17]
  half-life: 21.4 h
[18]
  MRT inf: 8.9 h
[19]
  MRT inf: 10 h
[20]
  bioavailability: 24.8%
Mus musculus
  Activity: Active
[21]
  inhibition: 73.1%
[22]
  inhibition: 48.3%

## O=C(Nc1cncc(OCC2CCN(Cc3ccccc3F)CC2)c1)c1ccnc(NC(=O)C2CC2)c1
Acetylcholinesterase [1]
  IC50: 4.7 nM
Acetylcholinesterase [2]
  IC50: 10.1 nM
[3]
  IC50: 77 nM
